{
  "source": "patent US20250295690A1",
  "about": "“ORAL FORMULATION BASED ON A PRE-ESTABLISHED ASSOCIATION OF SULODEXIDE AND FLAVONOIDS FOR THE TREATMENT OF CHRONIC VENOUS INSUFFICIENCY AND PREVENTION OF COMPLICATIONS THEREOF” (priority 2021, published 2025)",
  "key": {"[1]": {"system": "human micro-vascular endothelial cells (HMVEC)", "assay": "In vitro vascular permeability assay on a VEGF-treated HMVEC monolayer (FITC-dextran)", "assay_type": "cell-based", "conditions": "HMVEC line, 50 ng/ml, 8 hours", "description": "(§1) The direct effect on the vasal permeability of three compositions comprising Sulodexide+flavonoids was evaluated in vitro:\n(§2) All tested compositions (i)-(iii) comprise a concentration of sulodexide equal to 0.25% and a concentration of diosmin, hesperidin or troxerutin, respectively, equal to 4.5% by weight with respect to the total weight of the composition.\n(§3) The action of the compositions (i)-(iii) was compared with the action of the active principles Diosmin, Hesperidin, Troxerutin, 8% by weight, and glucosaminoglycan Sulodexide, 0.5% by weight, administered singularly.\n(§4) The direct effect on the vasal permeability was evaluated by using endothelial cellular cultures miming the continuous mono-layer of the endothelium of the human vessels. Two cellular models were used: the human micro-vascular endothelial cells (HMVEC) to simulate the vessels of the microcirculation, and the human umbilical vein endothelial cells (HUVEC) to study the vasal endothelium. The cells of the lines HMVEC and HUVEC (3×10^5) were incubated for 72 hours at 37° C. on supports of semi-permeable membrane with pores having 1-μm diameter so as to form a continuous mono-layer wholly impermeable to the substance used as control, the fluorescein isothiocyanate (FITC) dextran. The vasal permeability was evaluated with the kit “The Millipore® In Vitro Vascular Permeability Assay”. […]"}, "[2]": {"system": "human umbilical vein endothelial cells (HUVEC)", "assay": "In vitro vascular permeability assay on a VEGF-treated HUVEC monolayer (FITC-dextran)", "assay_type": "cell-based", "conditions": "50 ng/ml, 8 hours", "description": "as §1, §2, §3, §4"}},
  "data": [
    {"substance": "VEGF", "values": [
      {"measurement": "increase in permeability", "setting": "[1]", "value": 36, "unit": "%"},
      {"measurement": "increase in permeability", "setting": "[2]", "value": 42, "unit": "%"}
    ]}
  ]
}
